Legend:
[1] = system: characteristic stretching or writhing syndrome induced by phenylquinone; test: animal or person; assay type: in vivo, female white mice; conditions: for ED50: Mus musculus, po, 0.5 h, read-out: Effect ED50, Oral PQW
[2] = system: Straub tail induced by morphine; test: narcotic antagonist test: prevention of Straub tail induced by morphine sulfate; assay type: in vivo, Female CF1 S mice; conditions: for ED50: Mus musculus, sc, subcutaneous, challenge 30 mg/kg morphine sulfate i.p., read-out: Effect ED50, Subcutaneous Anti-Straub Tail
[3] = system: anorexigenic effect (milk spots consumed); test: animal or person; assay type: in vivo, Female CF1 mice; conditions: Mus musculus, po, read-out: Anorexigenic Effect, Effective Dose
[4] = system: Straub tail induced by morphine; conditions: known narcotic antagonists, Blumberg et al.; cited from earlier work

Row | Structure (SMILES) | ED50 [1] [mg/kg] | analgesic potency compared with morphine ([1]; mouse, in vivo) | ED50 [2] [mg/kg] | minimal effective dose [3] [mg/kg] | narcotic antagonism capability / antagonist character ([2]; Straub tail antagonism, in words) | prevention of the induction of Straub tail by morphine [4]
1 | OCC1CC2CCC13CN(CC1CC1)CCC31c3cccc(O)c3OC21 (single isomer, unassigned) [Example 9, 3-cyclopropylmethyl-5-hydroxymethyl-1,2,3,4,5,6,7,7a-octahydro-4a,7-ethanobenzofuro[3,2-e]isoquinolin-9-ol] | 0.28 | several times greater potency than morphine |  |  |  | 
2 | CC(C)(C)C(C)(O)C1CC2CCC13CN(CC1CC1)CCC31c3cccc(O)c3OC21 (single isomer, unassigned) [Example 11, 3-Cyclopropylmethyl-5-(2-hydroxy-3,3-dimethyl-2-butyl)-1,2,3,4,5,6,7,7a-octahydro-4a,7-ethanobenzofuro[3,2-e]isoquinolin-9-ol] | 5.2 |  |  |  |  | 
3 | COc1cccc2c1OC1C3CCC4(CC3)CN(C)CCC214 (stereo not shown) [Example 1, 9-methoxy-3-methyl-1,2,3,4,5,6,7,7a-octahydro-4a,7-ethanobenzofuro[3,2-e]isoquinoline] | 20.5 |  | > 18 | 20 |  | 
4 | CN1CCC23c4cccc(O)c4OC2C2CCC3(CC2)C1 (stereo not shown) [Example 2, 3-methyl-1,2,3,4,5,6,7,7a-octahydro-4a,7-ethanobenzofuro[3,2-e]isoquinolin-9-ol] | 12 |  | 0.05 | > 324 |  | 
5 | CCCN1CCC23c4cccc(OC)c4OC2C2CCC3(CC2)C1 (stereo not shown) [Example 3, 9-Methoxy-3-propyl-1,2,3,4,5,6,7,7a-octahydro-4a,7-ethanobenzofuro[3,2-e]isoquinoline] | > 135 |  | 0.19 |  |  | 
6 | CCCN1CCC23c4cccc(O)c4OC2C2CCC3(CC2)C1.Cl (stereo not shown) [Example 4, 3-propyl-1,2,3,4,5,6,7,7a-octahydro-4a,7-ethanobenzofuro[3,2-e]isoquinolin-9-ol hydrochloride] | 99 |  | 0.009 | 7 | pure narcotic antagonists | 
7 | Oc1cccc2c1OC1C3CCC4(CC3)CN(CC3CC3)CCC214 (stereo not shown) [Example 6, 3-Cyclopropylmethyl-1,2,3,4,5,6,7,7a-octahydro-4a,7-ethanobenzofuro[3,2-e]isoquinolin-9-ol] | 4.4 |  | 0.005 | 46 |  | 
8 | CC(O)C1CC2CCC13CN(CC1CC1)CCC31c3cccc(O)c3OC21 (stereo not shown) [Example 7, 3-Cyclopropylmethyl-5-(1-hydroxyethyl)-1,2,3,4,5,6,7,7a-octahydro-4a,7-ethanobenzofuro[3,2-e]isoquinolin-9-ol] | 0.78 |  | 0.08 |  |  | 
9 | CC(O)C1CC2C=CC13CN(CC1CC1)CCC31c3cccc(O)c3OC21 (stereo not shown) [Example 8, 3-Cyclopropylmethyl-5-(1-hydroxyethyl)-1,2,3,4,5,6,7,7a-octahydro-4a,7-ethenobenzofuro[3,2-e]isoquinolin-9-ol] | 0.51 |  | 0.024 |  |  | 
10 | CN1CC[C@]23c4c5ccc(O)c4O[C@H]2[C@@H](O)C=C[C@H]3[C@H]1C5 [Morphine, reference compound] | 3 |  |  |  |  | 
11 | C=CCN1CC[C@]23c4c5ccc(O)c4O[C@H]2[C@@H](O)C=C[C@H]3[C@H]1C5 [Nalorphine] |  |  |  |  |  | prevent the induction of Straub tail in mice
12 | C=CCN1CC[C@]23c4c5ccc(O)c4O[C@H]2C(=O)CC[C@@]3(O)[C@H]1C5 [Naloxone, reference compound] |  |  |  | 4.8 |  | prevent the induction of Straub tail in mice
13 | CC(C)=CCN1CCC2(C)c3cc(O)ccc3CC1C2C (stereo not shown) [Pentazocine, reference compound] | 56 |  | 4 |  |  | 

From US4477456A (priority 1982, dated 1984)
